101 compounds from ChEMBL document CHEMBL3507680, “University of Dundee, Gates Library screen for HepG2 cell viability” can be followed below.

The data set is described as follows: Human HepG2 cell viability assay in 384 well format. The note with it: HepG2 cells, read-out: Inhibition. It is filed as toxicity, cell-based. Set-up: dose 125 nL, time 70.5 hour; concentration not given beside the values.

As for `CC(C)(C)OC(=O)N1CCC(NC2CC2)CC1`, the cytotoxicity at 70.5 h is -7.1%. The same measure for `Cc1noc(C)c1CN(C)Cc1csc(-c2ccccc2F)n1`: -3.72%; for `COCc1cc(N(C)Cc2cnccn2)nc(C(C)(C)C)n1`: -12.2%; for `COc1cccc(CNc2nc(N3CCOCC3)ns2)c1OC`: 15.5%. The same measure for `O=C(NCC(=O)N1CCCC1Cc1cccc(F)c1)C1CCCC1` (stereo unspecified): -1.38%.

For `Cc1cc(C)n(CCCNC(=O)NCc2c(C)cc(C)[nH]c2=O)n1`, the cytotoxicity at 70.5 h is 2.42%. The same measure for `COC(=O)CC(NC(=O)c1cc(OC)c2c(c1)OCCO2)c1cccs1` (stereo unspecified): -9.89%. The same measure for `N#Cc1ccc(S(=O)(=O)NC(=O)c2csc(-c3ccco3)n2)cc1`: -2.89%; for `Cc1cc(C)n(CC(C)CNC(=O)NCc2c(C)cc(C)[nH]c2=O)n1` (stereo unspecified): -10.1%. As for `C=C(C)CN1CCC(NC(=O)Nc2ccc(F)c(C(N)=O)c2)CC1`, the figure is -6.42%; as for `CNS(=O)(=O)c1ccc(CNC(=O)C2CN(C)CCO2)cc1` (stereo unspecified), -5.64%; as for `CNS(=O)(=O)c1ccc(CNC(=O)C2CCCN(C)C2)cc1` (stereo unspecified), -6.65%. Consider `CCOc1c(F)cccc1C(=O)N(c1cccnc1)C(C)C`, for which the cytotoxicity at 70.5 h is -3.95%. As to `Cc1c(COC(C)C)cccc1NC(=O)N1CCC(N2CCCC2)C1` (stereo unspecified), the cytotoxicity at 70.5 h turned out to be 9%.

For the compound `CCc1n[nH]c(NC(=O)c2ccc(Cl)cn2)c1Br`, the cytotoxicity at 70.5 h was -2.17%. The same measure for `Cc1c(COC(C)C)cccc1NC(=O)N1CC[C@H](O)C1`: -6.27%; for `CCCn1nc2c(cc1=O)CN(c1ncnc3ccsc13)CC2`: -13%; for `Cc1c(COc2ccccc2)cccc1NC(=O)N1CC[C@H](O)C1`: -1.47%.

Consider `O=C(Cc1ccon1)N1CCN(c2ccncc2Cl)CC1`, for which the cytotoxicity at 70.5 h worked out at 5.48%. As for `COc1ccc(CNc2nc(N3CCOCC3)ns2)cc1`, the figure is -10.7%; as for `CCOc1c(F)cccc1C(=O)N(CC)C(C)c1ccncc1` (stereo unspecified), -4.06%; as for `O=C(Cn1cc(C2CC2)nn1)N(Cc1ccco1)Cc1cccs1`, -2.55%. Consider `O=C(Cc1cccnc1)NCCSc1ccccc1F`, for which the cytotoxicity at 70.5 h was -11.1%. The same measure for `CCC(NCCn1cccn1)C(=O)Nc1cc(C)on1` (stereo unspecified): 24.9%; for `CC(Cc1cccc(F)c1)C(=O)NS(=O)(=O)c1ccc(F)cc1` (stereo unspecified): 11.8%; for `COc1ccc(OCc2nc3cc4c(cc3c(=O)o2)OCCCO4)cc1`: -5.23%.

Regarding `CSCCC(NC(N)=O)C(=O)NCc1ccc(-n2cccn2)cc1` (stereo unspecified), the cytotoxicity at 70.5 h is -6.9%.

Turning to `CN(C)c1nc(N)nc(CN2CCC(c3ccccc3)CC2)n1`, the cytotoxicity at 70.5 h is -10.6%.

On to `Cc1cc(CN(CC(N)=O)CC(C)C)on1`, for which the cytotoxicity at 70.5 h came out at 18.1%.

Regarding `CC(C(=O)NC1(C#N)CCCCC1)N1CCc2c(ncn2C)C1` (stereo unspecified), the cytotoxicity at 70.5 h is -3.36%. As for `CC(C)(C)NC(=O)C1CCCCN1Cc1nccn1CC(F)(F)F` (stereo unspecified), the figure is -0.987%; as for `CC(C)(C)c1cc(=O)[nH]c(C2(N)CCCC2)n1`, 14.1%.

`COc1ccccc1N1CCCC(NC(=O)Nc2cccnc2)C1` (stereo unspecified): the cytotoxicity at 70.5 h was found to be 8.99%.

For the compound `COc1c(F)cc(NC(=O)N2CCC(CSC)C2)cc1F` (stereo unspecified), the cytotoxicity at 70.5 h amounted to 16.5%.

`COC(CNC(=O)CNC(=O)c1ccccc1)c1cccc(Cl)c1` (stereo unspecified): the cytotoxicity at 70.5 h is -2.92%. The same measure for `CC(Cc1cccc(F)c1)C(=O)NS(=O)(=O)c1ccc2c(c1)OCCO2` (stereo unspecified): 19.6%; for `Cc1cc(CNC2(CO)CCOCC2)ccc1Br`: -0.894%. The same measure for `CC(C)c1ccc(/C=C/CC(=O)NC2CCN(C(N)=O)C2)cc1` (stereo unspecified): 9%. Regarding `CC(C)c1ccc(/C=C/CC(=O)NC2CCS(=O)(=O)CC2)cc1`, the cytotoxicity at 70.5 h is -1.79%. With `CCN(CC)C1CCN(C(=O)Nc2cc(F)c(OC)c(F)c2)C1` (stereo unspecified), the cytotoxicity at 70.5 h turned out to be 1.91%. Regarding `Cc1nnc(CN(C)CC(=O)N2CCCC(C)CC2)n1C` (stereo unspecified), the cytotoxicity at 70.5 h is -8.63%.

Take `O=C(NC1CCN(c2ccccc2OC(F)F)C1)c1cccnc1` (stereo unspecified): the cytotoxicity at 70.5 h was -4.78%. As to `O=S(=O)(CCCN1CCc2c(ncn2C2CC2)C1)c1ccccc1`, the cytotoxicity at 70.5 h stood at 1.18%. As for `CN(CCCOc1ccc(F)cc1)S(=O)(=O)c1cnn(C)c1`, the figure is -8.61%; as for `CN(CCCOc1ccccc1)S(=O)(=O)c1cnn(C)c1`, 21.2%.

On to `Cc1ccc(OCCN(C)S(=O)(=O)c2cnn(C)c2)cc1`, for which the cytotoxicity at 70.5 h was -4.35%.

As for `NC(=O)NC(=O)C(c1ccccc1)N1CCN(Cc2ccccc2)CC1` (stereo unspecified), the cytotoxicity at 70.5 h was found to be 1.22%. As for `COCCNC(=O)CCNc1cc(C)nc(-c2ccncc2)n1`, the figure is -15.7%; as for `Cc1cc(NCCC(=O)NC2CCCC2)nc(-c2ccncc2)n1`, 0.777%. As for `CC(C)N1CCCC(CNC(=O)c2ccnc(-n3ccnc3)c2)C1` (stereo unspecified), the figure is -4.35%. The same measure for `Cc1ccc2c(c1)CCC2NC(=O)N1CCC(C(N)=O)CC1` (stereo unspecified): -6.61%.

For the compound `Cc1cc(NCCC(=O)NC2CCS(=O)(=O)C2)nc(-c2ccncc2)n1` (stereo unspecified), the cytotoxicity at 70.5 h was -8.91%. As for `CN(CCNC(=O)c1ccnc(-n2ccnc2)c1)C1CC1`, the figure is -1.87%; as for `CC(NC(=O)NCC(F)(F)F)c1nncn1C` (stereo unspecified), 29.7%. Turning to `CS(=O)(=O)CCN1CCc2c(ncn2C2CC2)C1`, the cytotoxicity at 70.5 h was -3.42%.

Take `CN(C)CCOc1ccc(N(C)S(=O)(=O)c2cnn(C)c2)cc1`: the cytotoxicity at 70.5 h was -1.43%. As for `c1ccc(C2(CNCc3cnc(N4CCOCC4)nc3)CC2)cc1`, the figure is -8.71%; as for `Cc1cc(C(=O)N(CCN(C)C)Cc2ccc(Cl)cc2)no1`, -0.353%; as for `Cc1ccc(CNc2ccccc2-n2ccc(C)n2)nc1`, 8.61%. As for `CC(C)CC(=O)NCCCc1cc(N)n(-c2ccccc2)n1`, the figure is 4.65%; as for `CC(CNC(=O)NCCCc1cc(N)n(-c2ccccc2)n1)N(C)C` (stereo unspecified), -8.44%; as for `CCc1nc(CN2CCCC(N(C)Cc3nc(C)c(C)o3)C2)no1` (stereo unspecified), -74.1%.

As to `CCc1nc(CN2CCCC(N(C)Cc3cnc(C)cn3)C2)no1` (stereo unspecified), the cytotoxicity at 70.5 h was -71.2%. As for `Cc1nc(CCNC(=O)C2CC(=O)N(C(C)C)C2)cs1` (stereo unspecified), the figure is 32.3%; as for `CCSc1cc(C(=O)NCCNC(=O)Cc2ccccc2)ccn1`, -117%; as for `CCCc1cc(NC2CCc3nc(CC)nn3C2)n2ncnc2n1` (stereo unspecified), -100%. As for `Cc1nc(C)n(CC2CCCN2Cc2coc(-c3cccs3)n2)n1` (stereo unspecified), the figure is -115%; as for `Cc1ccc(-c2nc(CCNC(=O)C3CC(=O)N(C)C3)cs2)cc1` (stereo unspecified), -98.5%. The same measure for `CCCc1cc(NC2CCc3nc(C(C)C)nn3C2)n2ncnc2n1` (stereo unspecified): -104%; for `c1csc(-c2nc(CN3CCCC3Cn3cccn3)co2)c1` (stereo unspecified): -75.5%; for `Cc1cnn(CC2CCCN2Cc2coc(-c3cccc(F)c3)n2)c1` (stereo unspecified): -113%. On to `CCS(=O)(=O)CCCOc1nc(-c2ccccc2Cl)no1`, for which the cytotoxicity at 70.5 h was -96.6%.

`O=C1CCC(=O)N1CCOc1nc(-c2ccccc2Cl)no1`: the cytotoxicity at 70.5 h was -77.6%. On to `Cc1n[nH]c(C2CN(CC(=O)NCc3sccc3C)CCO2)n1` (stereo unspecified), for which the cytotoxicity at 70.5 h is -93.4%. The same measure for `O=C(NS(=O)(=O)c1cc(Cl)ccc1Cl)c1cccc2c1OCCO2`: 58.5%; for `O=C(NS(=O)(=O)c1ccc(Cl)cc1F)c1cccc2c1OCCO2`: -108%; for `CCSc1cc(C(=O)NCCNC(=O)N(C)C)ccn1`: -76.6%.

With `Cc1cc(C(=O)N2CCN(S(C)(=O)=O)[C@@H](C)C2)c(F)cc1F`, the cytotoxicity at 70.5 h is -97.9%.

As for `Cc1cc(NC2CCc3ncnn3C2)n2nc(C(F)(F)F)nc2n1` (stereo unspecified), the cytotoxicity at 70.5 h is -95.5%. The same measure for `Cc1ccc(F)cc1C(=O)N1CCN(S(C)(=O)=O)[C@@H](C)C1`: -82.4%; for `CN(Cc1ccc(N2CCOCC2)cc1)Cc1noc(C(C)(C)C)n1`: 7.66%. As for `COCCc1noc(CN2CCCC2c2noc(C3CC3)n2)n1` (stereo unspecified), the figure is -1.05%; as for `O=C(C(CNCc1ccccn1)c1ccccc1)N1CCOCC1` (stereo unspecified), 0.375%. The same measure for `O=S(=O)(NCC1COc2ccccc2C1)N1CCCCC1` (stereo unspecified): -9.29%. For `CC(C(=O)N1CCN(Cc2ccncc2)CC1)n1cncn1` (stereo unspecified), the cytotoxicity at 70.5 h was -4.9%. Take `N#Cc1ccc(CNc2cccc(C(=O)N3CCOCC3)c2)cc1`: the cytotoxicity at 70.5 h is -9.56%. As for `Cc1ccc(OCCNc2cccc(C(=O)N3CCOCC3)c2)cc1`, the figure is 23.6%; as for `CC(C)Cc1nc(CN2CCC(NC(=O)c3cccs3)CC2)no1`, -6.12%; as for `CC(C)c1nn(C)c(N(C)C)c1CNCC(O)COc1ccccc1` (stereo unspecified), -3.95%. Consider `Cc1noc(C)c1CN1CCN(C(=O)C(C(C)C)n2cncn2)CC1` (stereo unspecified), for which the cytotoxicity at 70.5 h turned out to be 2.25%. As for `CC(C)(C)C(=O)NCCCC(=O)NC(C)(C)c1ccc2c(c1)OCO2`, the figure is 3.16%. As for `COc1ccc(OCCNc2cccc(C(=O)N3CCOCC3)c2)cc1`, the figure is -3.69%; as for `CC(C)(C)C(=O)NCCC(=O)NC(C)(C)c1ccc2c(c1)OCO2`, -3.54%; as for `O=C(C(CNCc1cccc(O)c1)c1ccccc1)N1CCOCC1` (stereo unspecified), -4.48%. As for `COCC(NC(=O)c1ccoc1C)c1cccc(C(F)(F)F)c1` (stereo unspecified), the figure is -2.1%; as for `O=C(C(CNCc1ccccc1O)c1ccccc1)N1CCOCC1` (stereo unspecified), -2.58%; as for `CC(=O)N1CCc2cc(Cl)cc(Cl)c2C1`, -5.27%. As to `COCCOCC(=O)N1CCc2cc(Cl)cc(Cl)c2C1`, the cytotoxicity at 70.5 h was -6.61%. As for `COC(=O)NCC(=O)N1CCc2cc(Cl)cc(Cl)c2C1`, the figure is -1.77%; as for `CC(C)c1noc(CN(Cc2ccccc2)C2CC2)n1`, 0.0143%; as for `NC1(c2nc(C(F)(F)F)cc(=O)[nH]2)CCCC1`, 21.9%.
